{
  "source": "patent US6864287B1",
  "about": "“Derivatives of dicarboxylic acid having pharmaceutical properties” (Bayer Aktiengesellschaft, priority 1999, dated 2005)",
  "key": {"arteria saphena": {"system": "arteria saphena", "test": "Vasorelaxant action in vitro (phenylephrin-contracted artery rings)", "parameters": "species or system Rabbits", "settings": "Oryctolagus cuniculus; rabbit arteria saphena rings, contraction induced by phenylephrin; read-out: IC50 (concentration reducing the phenylephrin-induced contraction by 50%)", "procedure": "Vaso Relaxant Action in Vitro\nRabbits are anaesthetized by intravenous injection of thiopental sodium […] (about 50 mg/kg) and exsanguinated. The arteria saphena is removed and divided into 3 mm wide rings. The rings are individually mounted on in each case one triangular pair of hooks, open at the end, made of 0.3 mm strong special wire (Remanium®). Under a pretension, each ring is transferred into 5 ml organ baths containing a warm, carbogen-aerated Krebs-Henseleit solution at 37° C. having the following composition (mM): NaCl: 119; KCl: 4.8; CaCl2×2H2O: 1; MgSO4×7H2O: 1.4; KH2PO4: 1.2; NaHCO3: 25; glucose: 10; bovine serum albumin: 0.001%. The contractility is detected using Statham UC2 cells, amplified and digitalized by means of A/D converters (DAS-1802 HC, Keithley Instruments Munich), and recorded in parallel on linear recorders. Contractions are induced by addition of phenylephrin.\nAfter several (in general 4) control cycles, the substance to be investigated is added in each further passage in increasing dosage, and the height of the contraction achieved under the influence of the test substance is compared with the height of the contraction achieved in the last preliminary passage. From this, the concentration which is necessary in order to reduce the contraction achieved in the preliminary control by 50% (IC50) is calculated. The standard administration volume is 5 μl. The proportion of DMSO in the bath solution corresponds to 0.1%."}, "Heme-containing sGC": {"molecular_target": "T1, Heme-containing sGC (Rattus norvegicus, UniProt P20595)", "T1 construct": "made in house; host or cells: baculovirus/Sf9 insect cells", "T1 sequence (P20595 1-619)": "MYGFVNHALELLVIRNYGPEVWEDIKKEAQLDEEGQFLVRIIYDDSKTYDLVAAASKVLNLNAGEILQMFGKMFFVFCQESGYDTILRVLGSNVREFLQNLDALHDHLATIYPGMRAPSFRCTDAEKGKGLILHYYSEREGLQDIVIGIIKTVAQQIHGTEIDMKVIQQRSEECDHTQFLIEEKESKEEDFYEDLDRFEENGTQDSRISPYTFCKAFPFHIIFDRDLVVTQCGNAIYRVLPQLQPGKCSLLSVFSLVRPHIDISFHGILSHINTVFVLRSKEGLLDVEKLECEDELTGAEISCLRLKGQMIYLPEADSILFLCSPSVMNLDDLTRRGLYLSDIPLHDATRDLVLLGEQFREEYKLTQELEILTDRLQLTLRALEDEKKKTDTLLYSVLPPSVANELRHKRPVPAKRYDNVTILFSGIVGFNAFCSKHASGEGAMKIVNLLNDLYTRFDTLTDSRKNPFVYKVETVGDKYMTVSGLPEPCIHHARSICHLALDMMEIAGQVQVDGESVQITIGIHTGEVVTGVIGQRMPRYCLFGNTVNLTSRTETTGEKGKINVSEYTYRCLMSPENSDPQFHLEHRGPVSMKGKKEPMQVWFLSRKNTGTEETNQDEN", "T1 sequence (P19686 1-690 partner)": "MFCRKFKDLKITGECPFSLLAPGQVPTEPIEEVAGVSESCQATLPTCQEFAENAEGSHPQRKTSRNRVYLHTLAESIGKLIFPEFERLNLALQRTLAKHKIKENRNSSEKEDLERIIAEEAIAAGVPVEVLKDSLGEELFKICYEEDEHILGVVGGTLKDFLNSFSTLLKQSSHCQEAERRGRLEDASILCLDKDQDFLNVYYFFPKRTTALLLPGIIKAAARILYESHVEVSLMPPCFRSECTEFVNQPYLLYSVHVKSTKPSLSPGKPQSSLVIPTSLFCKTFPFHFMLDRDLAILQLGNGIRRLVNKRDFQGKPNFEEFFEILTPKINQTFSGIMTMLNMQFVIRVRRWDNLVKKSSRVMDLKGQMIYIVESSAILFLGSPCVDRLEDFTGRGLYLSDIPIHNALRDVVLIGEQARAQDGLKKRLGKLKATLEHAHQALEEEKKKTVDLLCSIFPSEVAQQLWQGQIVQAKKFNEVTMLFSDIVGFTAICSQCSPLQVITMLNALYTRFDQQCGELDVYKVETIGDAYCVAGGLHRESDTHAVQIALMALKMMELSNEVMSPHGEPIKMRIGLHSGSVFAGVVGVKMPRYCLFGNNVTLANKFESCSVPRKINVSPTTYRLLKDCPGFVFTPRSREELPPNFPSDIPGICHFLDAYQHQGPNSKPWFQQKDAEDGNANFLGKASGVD", "test": "Stimulation of recombinant soluble guanylate cyclase (sGC) in vitro, heme-containing enzyme", "format": "biochemical", "procedure": "(§1) Stimulation of Recombinant Soluble […] Cyclase (sGC) in Vitro\n(§2) The investigation on the stimulation of recombinant soluble guanylate cyclase (sGC) and the compounds according to the invention with and without sodium nitroprusside and with and without the heme-dependent sGC inhibitor 1H-1,2,4-oxadiazole-(4,3a)-quinoxalin-1-one (ODQ) were carried out by the method described in detail in the following literature reference: M. Hoenicka, E. M. Becker, H. Apeler, T. Sirichoke, H. Schroeder. R Gerzer and J.-P. Stasch: Purified soluble guanylyl cyclase expressed in baculovirus/Sf9 system: stimulation by YC-1, nitric oxide, and carbon oxide. J. Mol, Med. 77 (1999): 14-23.\n(§3) Activation of sGC by a test substance is stated as n-fold stimulation of basal activity."}, "Heme-free sGC": {"molecular_target": "T2, Heme-free sGC (Rattus norvegicus, UniProt P20595)", "T2 construct": "made in house; host or cells: baculovirus/Sf9 insect cells", "T2 sequence (P20595 1-619)": "T1 sequence (P20595 1-619)", "T2 sequence (P19686 1-690 partner)": "T1 sequence (P19686 1-690 partner)", "test": "Stimulation of recombinant soluble guanylate cyclase (sGC) in vitro, heme-free enzyme", "format": "biochemical", "procedure": "as §1, §2\nHeme-free guanylate cyclase was obtained by adding Tween 20 to the sample buffer (final concentration 0.5%).\nas §3"}},
  "data": [
    {"smiles": "O=C(O)CCCCC(CCc1ccccc1OCCCCCc1ccccc1)Cc1ccc(C(=O)O)cc1", "note": "(centres unmarked) [Example 41]", "values": [
      {"measurement": "IC50", "setting": "arteria saphena", "value": 0.0028, "unit": "µM"}
    ]},
    {"smiles": "O=C(O)CCCCC(/C=C/c1ccccc1OCCCOc1ccccc1)Cc1ccc(C(=O)O)cc1", "note": "(centres unmarked) [Example 24]", "values": [
      {"measurement": "IC50", "setting": "arteria saphena", "value": 6.2, "unit": "µM"}
    ]},
    {"smiles": "O=C(O)CCCCC(/C=C/c1ccccc1OCCCCCc1ccccc1)Cc1ccc(C(=O)O)cc1", "note": "(centres unmarked) [Example 16]", "values": [
      {"measurement": "IC50", "setting": "arteria saphena", "value": 0.005, "unit": "µM"},
      {"measurement": "Stimulation (n-fold), + ODQ (10 μM)", "setting": "Heme-containing sGC; 0.1 μM Ex. 16", "value": 27, "unit": "n-fold"},
      {"measurement": "Stimulation (n-fold), + ODQ (10 μM)", "setting": "Heme-containing sGC; 1.0 μM Ex. 16", "value": 52, "unit": "n-fold"},
      {"measurement": "Stimulation (n-fold), + ODQ (10 μM)", "setting": "Heme-containing sGC; 10 μM Ex. 16", "value": 88, "unit": "n-fold"},
      {"measurement": "Stimulation (n-fold), + SNP (0.1 μM)", "setting": "Heme-containing sGC; 0.1 μM Ex. 16", "value": 14, "unit": "n-fold"},
      {"measurement": "Stimulation (n-fold), + SNP (0.1 μM)", "setting": "Heme-containing sGC; 1.0 μM Ex. 16", "value": 33, "unit": "n-fold"},
      {"measurement": "Stimulation (n-fold), + SNP (0.1 μM)", "setting": "Heme-containing sGC; 10 μM Ex. 16", "value": 29, "unit": "n-fold"},
      {"measurement": "Stimulation (n-fold), Basal", "setting": "Heme-containing sGC; 0.1 μM Ex. 16", "value": 4, "unit": "n-fold"},
      {"measurement": "Stimulation (n-fold), Basal", "setting": "Heme-containing sGC; 1.0 μM Ex. 16", "value": 9, "unit": "n-fold"},
      {"measurement": "Stimulation (n-fold), Basal", "setting": "Heme-containing sGC; 10 μM Ex. 16", "value": 19, "unit": "n-fold"},
      {"measurement": "Stimulation (n-fold), + ODQ (10 μM)", "setting": "Heme-free sGC; 0.1 μM Ex. 16", "value": 12, "unit": "n-fold"},
      {"measurement": "Stimulation (n-fold), + ODQ (10 μM)", "setting": "Heme-free sGC; 1.0 μM Ex. 16", "value": 94, "unit": "n-fold"},
      {"measurement": "Stimulation (n-fold), + ODQ (10 μM)", "setting": "Heme-free sGC; 10 μM Ex. 16", "value": 291, "unit": "n-fold"},
      {"measurement": "Stimulation (n-fold), Basal", "setting": "Heme-free sGC; 0.1 μM Ex. 16", "value": 11, "unit": "n-fold"},
      {"measurement": "Stimulation (n-fold), Basal", "setting": "Heme-free sGC; 1.0 μM Ex. 16", "value": 54, "unit": "n-fold"},
      {"measurement": "Stimulation (n-fold), Basal", "setting": "Heme-free sGC; 10 μM Ex. 16", "value": 204, "unit": "n-fold"}
    ]},
    {"smiles": "CCc1ccc(COc2ccccc2/C=C/C(CCCCC(=O)O)Cc2ccc(C(=O)O)cc2)cc1", "note": "(centres unmarked) [Example 35]", "values": [
      {"measurement": "IC50", "setting": "arteria saphena", "value": 0.0017, "unit": "µM"}
    ]},
    {"smiles": "N#Cc1ccc(CC(/C=C/c2ccccc2OCCCCCc2ccccc2)CCCCC(=O)O)cc1", "note": "(centres unmarked) [Example 13]", "values": [
      {"measurement": "IC50", "setting": "arteria saphena", "value": 2.6, "unit": "µM"}
    ]},
    {"smiles": "O=C(O)CCCCC(/C=C/c1ccccc1CCc1ccccc1)Cc1ccc(C(=O)O)cc1", "note": "(centres unmarked) [Example 23]", "values": [
      {"measurement": "IC50", "setting": "arteria saphena", "value": 0.026, "unit": "µM"}
    ]},
    {"smiles": "O=C(O)CCCCC(/C=C/c1ccccc1OCCCCCc1ccccc1)Cc1ccccc1C(=O)O", "note": "(centres unmarked) [Example 60]", "values": [
      {"measurement": "IC50", "setting": "arteria saphena", "value": 0.608, "unit": "µM"}
    ]},
    {"smiles": "O=C(O)CCCCC(/C=C/c1ccccc1OCc1ccccc1Cl)Cc1ccc(C(=O)O)cc1", "note": "(centres unmarked) [Example 14]", "values": [
      {"measurement": "IC50", "setting": "arteria saphena", "value": 0.0087, "unit": "µM"}
    ]},
    {"smiles": "Cc1ccc(/C=C/C(CCCCC(=O)O)Cc2ccc(C(=O)O)cc2)c(OCc2ccccc2)c1", "note": "(centres unmarked) [Example 12]", "values": [
      {"measurement": "IC50", "setting": "arteria saphena", "value": 0.112, "unit": "µM"}
    ]},
    {"smiles": "O=C(O)CCCCC(CCc1ccccc1CCc1ccccc1)Cc1ccc(C(=O)O)cc1", "note": "(centres unmarked) [Example 40]", "values": [
      {"measurement": "IC50", "setting": "arteria saphena", "value": 0.041, "unit": "µM"}
    ]},
    {"smiles": "O=c1onc2cnc3ccccc3n12", "note": "[ODQ, 1H-1,2,4-oxadiazole-(4,3a)-quinoxalin-1-one, reference compound]", "values": [
      {"measurement": "Stimulation (n-fold), ODQ alone", "setting": "Heme-containing sGC; ODQ 10 μM, no Ex. 16 (0 μM)", "value": 1, "unit": "n-fold"},
      {"measurement": "Stimulation (n-fold), ODQ alone", "setting": "Heme-free sGC; ODQ 10 μM, no Ex. 16 (0 μM)", "value": 1, "unit": "n-fold"}
    ]},
    {"smiles": "O=C(O)CCCCC(CCCc1cccc(OCCCCc2ccccc2)c1)Cc1ccc(C(=O)O)cc1", "note": "(centres unmarked) [Example 44, 6-(4Carboxybenzyl)-9-(3-(4-phenylbutoxy)phenyl)nonanoic acid]", "values": [
      {"measurement": "IC50", "setting": "arteria saphena", "value": 7.8, "unit": "µM"}
    ]},
    {"smiles": "CC(C)(C)c1ccc(COc2ccccc2/C=C/C(CCCCC(=O)O)Cc2ccc(C(=O)O)cc2)cc1", "note": "(centres unmarked) [Example 34]", "values": [
      {"measurement": "IC50", "setting": "arteria saphena", "value": 0.00035, "unit": "µM"}
    ]}
  ]
}
